We go through 23 compounds from US11306101B2 (Celgene Corporation, priority 2019, dated 2022).

This assay concerns the target T1, CK1α (Homo sapiens, UniProt P48729+Q96SW2).
T1 construct: expressed in transfected cells
As to the kind of experiment: CK1α ePL degradation assay in MDS-L cells. In kind it is cell-based. The following applies: MDS-L cells expressing ePL-tagged CK1α; for DC50: concentration giving 50% CK1α degradation vs DMSO control; for Y: lowest measured CK1α level normalized to DMSO control. As for the experimental part: The following is an example of an assay that can be used to determine the CK1α degradation activity of Isoindolinone Carboxamide Compounds in a cell line, for example, the MDS-L cell line.
Compounds were dispensed by an acoustic dispenser (ATS acoustic transfer system from EDC Biosystems) into a 384-well in a 10 point dose-response curve using 3-fold dilutions starting at 10 μM and going down to 0.0005 μM in DMSO. […] Assay plates were incubated at 37° C. with 5% CO2 for the indicated times. At the different time points, 25 μL of the InCELL Hunter™ Detection Reagent Working Solution (catalog number 96-0002, DiscoverX, Fremont, Calif.) was added to each well and incubated at RT for 30 min protected from light. After 30 min, luminescence was read on a PHERAstar luminometer (BMG LABTECH, Cary, N.C.).
CK1α levels in compound-treated wells were normalized to that of DMSO control and expressed as percent of control (PoC) (y).
The lowest measured CK1α level normalized to DMSO control in response to compound treatment, termed Y value, was used to characterize the compound-mediated CK1α degradation efficiency.

Bounds are passed on as bounds.

T1 sequence (P48729 whole entry): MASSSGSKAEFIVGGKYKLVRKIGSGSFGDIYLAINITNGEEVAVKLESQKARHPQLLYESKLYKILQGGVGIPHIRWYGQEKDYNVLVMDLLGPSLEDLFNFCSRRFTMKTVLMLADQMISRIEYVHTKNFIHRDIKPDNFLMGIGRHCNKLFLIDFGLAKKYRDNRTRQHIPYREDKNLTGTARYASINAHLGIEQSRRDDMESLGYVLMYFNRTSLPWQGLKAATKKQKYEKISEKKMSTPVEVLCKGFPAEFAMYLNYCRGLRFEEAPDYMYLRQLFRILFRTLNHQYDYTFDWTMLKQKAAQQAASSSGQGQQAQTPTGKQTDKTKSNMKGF
T1 sequence (Q96SW2 whole entry): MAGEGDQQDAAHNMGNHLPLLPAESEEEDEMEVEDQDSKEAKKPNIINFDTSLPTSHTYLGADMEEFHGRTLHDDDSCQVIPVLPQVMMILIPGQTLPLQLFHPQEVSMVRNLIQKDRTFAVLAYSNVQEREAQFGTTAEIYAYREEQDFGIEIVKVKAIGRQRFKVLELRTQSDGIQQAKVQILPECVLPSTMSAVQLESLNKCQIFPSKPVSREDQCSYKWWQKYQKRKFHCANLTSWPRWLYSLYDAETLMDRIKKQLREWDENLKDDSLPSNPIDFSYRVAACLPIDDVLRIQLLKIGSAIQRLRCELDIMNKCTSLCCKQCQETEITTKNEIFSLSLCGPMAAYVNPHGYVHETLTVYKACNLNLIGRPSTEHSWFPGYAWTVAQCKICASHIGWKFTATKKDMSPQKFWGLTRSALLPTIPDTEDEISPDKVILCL
T1 sequence (Q16531 whole entry partner): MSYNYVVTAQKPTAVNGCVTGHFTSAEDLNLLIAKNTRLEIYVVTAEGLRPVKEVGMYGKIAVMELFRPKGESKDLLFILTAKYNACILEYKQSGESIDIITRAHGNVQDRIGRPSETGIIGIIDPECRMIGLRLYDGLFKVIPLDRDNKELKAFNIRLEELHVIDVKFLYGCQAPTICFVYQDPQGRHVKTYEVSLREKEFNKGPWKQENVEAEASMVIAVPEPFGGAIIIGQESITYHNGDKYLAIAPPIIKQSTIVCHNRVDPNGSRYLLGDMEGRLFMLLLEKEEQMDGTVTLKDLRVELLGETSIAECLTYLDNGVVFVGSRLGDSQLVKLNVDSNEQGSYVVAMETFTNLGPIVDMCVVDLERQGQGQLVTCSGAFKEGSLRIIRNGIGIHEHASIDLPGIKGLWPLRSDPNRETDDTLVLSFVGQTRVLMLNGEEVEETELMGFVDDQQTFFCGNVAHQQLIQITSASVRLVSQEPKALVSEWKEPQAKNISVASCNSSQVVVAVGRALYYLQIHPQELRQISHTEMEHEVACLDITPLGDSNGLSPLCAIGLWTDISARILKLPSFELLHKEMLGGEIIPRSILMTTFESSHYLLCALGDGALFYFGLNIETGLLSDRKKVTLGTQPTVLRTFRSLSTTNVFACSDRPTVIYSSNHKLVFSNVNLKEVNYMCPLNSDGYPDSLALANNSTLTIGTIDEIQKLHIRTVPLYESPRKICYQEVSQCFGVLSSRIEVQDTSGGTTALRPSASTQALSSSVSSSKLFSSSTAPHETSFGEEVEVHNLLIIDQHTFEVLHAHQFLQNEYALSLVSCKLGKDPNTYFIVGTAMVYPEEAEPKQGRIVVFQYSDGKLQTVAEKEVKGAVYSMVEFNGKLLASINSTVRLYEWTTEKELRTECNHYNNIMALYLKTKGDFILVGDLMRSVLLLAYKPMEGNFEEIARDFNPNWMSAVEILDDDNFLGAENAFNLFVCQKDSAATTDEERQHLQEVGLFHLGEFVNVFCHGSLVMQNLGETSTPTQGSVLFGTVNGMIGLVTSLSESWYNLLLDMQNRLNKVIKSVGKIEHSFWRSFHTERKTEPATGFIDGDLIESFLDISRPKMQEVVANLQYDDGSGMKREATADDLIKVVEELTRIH

Take `O=C1CCC(N2Cc3cc(C(=O)N[C@@H](C(F)(F)F)C45CC(C4)C5)ccc3C2=O)C(=O)N1` (stereo partly drawn) [Example 57, N-((R)-1-(bicyclo[1.1.1]pentan-1-yl)-2,2,2-trifluoroethyl)-2-(2,6-dioxopiperidin-3-yl)-1-oxoisoindoline-5-carboxamide]: the half-maximal degradation concentration (DC50) is under 100 nM and the Y result is “* (a Y value (shown as *) of 0<Y≤20%)”.

Turning to `O=C1CCC(N2Cc3cc(C(=O)N[C@H](c4cccc(OC(F)(F)F)c4)C(F)(F)F)ccc3C2=O)C(=O)N1` (stereo partly drawn) [Example 58, 2-(2,6-dioxopiperidin-3-yl)-1-oxo-N-((R)-2,2,2-trifluoro-1-(3-(trifluoromethoxy)phenyl)ethyl)isoindoline-5-carboxamide], the DC50 is under 100 nM and the Y result is “* (a Y value (shown as *) of 0<Y≤20%)”.

Regarding `C[C@H](NC(=O)c1ccc2c(c1)CN(C1CCC(=O)NC1=O)C2=O)c1ccc(F)cc1Cl` (stereo partly drawn) [Example 59, N-((S)-1-(2-chloro-4-fluorophenyl)ethyl)-2-(2,6-dioxopiperidin-3-yl)-1-oxoisoindoline-5-carboxamide], the 50% degradation concentration (DC50) was under 100 nM and the Y entry was “* (a Y value (shown as *) of 0<Y≤20%)”.

In the case of `O=C1CC[C@@H](N2Cc3cc(C(=O)N[C@H](c4ccccc4)C(F)(F)F)ccc3C2=O)C(=O)N1` [Example 60, 2-((R)-2,6-dioxopiperidin-3-yl)-1-oxo-N-((R)-2,2,2-trifluoro-1-phenylethyl)isoindoline-5-carboxamide], the DC50 was under 100 nM and the Y entry is “* (a Y value (shown as *) of 0<Y≤20%)”.

Consider `O=C1CC[C@H](N2Cc3cc(C(=O)N[C@H](c4ccccc4)C(F)(F)F)ccc3C2=O)C(=O)N1` [Example 61, 2-((S)-2,6-dioxopiperidin-3-yl)-1-oxo-N-((R)-2,2,2-trifluoro-1-phenylethyl)isoindoline-5-carboxamide], for which the DC50 was under 100 nM and the Y result is recorded as “* (a Y value (shown as *) of 0<Y≤20%)”.

With `O=C1CCC(N2Cc3cc(C(=O)N[C@H]([C@H]4CC[C@@H](O)CC4)C(F)(F)F)ccc3C2=O)C(=O)N1` (stereo partly drawn) [Example 62, 2-(2,6-dioxopiperidin-3-yl)-1-oxo-N-((R)-2,2,2-trifluoro-1-((1s,4S)-4-hydroxycyclohexyl)ethyl)isoindoline-5-carboxamide], the DC50 was in the range of 100 to 500 nM and the Y result is given as “* (a Y value (shown as *) of 0<Y≤20%)”.

Take `N#Cc1ccc([C@@H](NC(=O)c2ccc3c(c2)CN(C2CCC(=O)NC2=O)C3=O)C(F)(F)F)cc1` (stereo partly drawn) [Example 63, N-((R)-1-(4-cyanophenyl)-2,2,2-trifluoroethyl)-2-(2,6-dioxopiperidin-3-yl)-1-oxoisoindoline-5-carboxamide]: the DC50 is under 100 nM and the Y entry was “* (a Y value (shown as *) of 0<Y≤20%)”.

As for `N#Cc1cccc([C@@H](NC(=O)c2ccc3c(c2)CN(C2CCC(=O)NC2=O)C3=O)C(F)(F)F)c1` (stereo partly drawn) [Example 64, N-((R)-1-(3-cyanophenyl)-2,2,2-trifluoroethyl)-2-(2,6-dioxopiperidin-3-yl)-1-oxoisoindoline-5-carboxamide], the half-maximal degradation concentration (DC50) was under 100 nM and the Y entry is on record as “* (a Y value (shown as *) of 0<Y≤20%)”.

On to `Cn1ccc([C@@H](NC(=O)c2ccc3c(c2)CN(C2CCC(=O)NC2=O)C3=O)C(F)(F)F)n1` (stereo partly drawn) [Example 65, 2-(2,6-dioxopiperidin-3-yl)-1-oxo-N-((R)-2,2,2-trifluoro-1-(1-methyl-1H-pyrazol-3-yl)ethyl)isoindoline-5-carboxamide], for which the DC50 lay in the range of 500 to 1000 nM and the Y result was “** (a Y value (shown as**) of 20%<Y≤35%)”.

Turning to `O=C1CCC(N2Cc3cc(C(=O)N[C@H](c4cncnc4)C(F)(F)F)ccc3C2=O)C(=O)N1` (stereo partly drawn) [Example 66, 2-(2,6-dioxopiperidin-3-yl)-1-oxo-N-((R)-2,2,2-trifluoro-1-(pyrimidin-5-yl)ethyl)isoindoline-5-carboxamide], the DC50 lay in the range of 500 to 1000 nM and the Y entry was “** (a Y value (shown as**) of 20%<Y≤35%)”.

For the compound `COc1cc(F)ccc1[C@@H](NC(=O)c1ccc2c(c1)CN(C1CCC(=O)NC1=O)C2=O)C(F)(F)F` (stereo partly drawn) [Example 67, 2-(2,6-dioxopiperidin-3-yl)-1-oxo-N-((R)-2,2,2-trifluoro-1-(4-fluoro-2-methoxyphenyl)ethyl)isoindoline-5-carboxamide], the 50% degradation concentration (DC50) was under 100 nM and the Y result is recorded as “* (a Y value (shown as *) of 0<Y≤20%)”.

As for `CC(C)([C@@H](NC(=O)c1ccc2c(c1)CN(C1CCC(=O)NC1=O)C2=O)C(F)(F)F)C(F)(F)F` (stereo partly drawn) [Example 68, 2-(2,6-dioxopiperidin-3-yl)-N-((R)-1,1,1,4,4,4-hexafluoro-3,3-dimethylbutan-2-yl)-1-oxoisoindoline-5-carboxamide], the DC50 fell in the range of 100 to 500 nM and the Y entry is listed as “** (a Y value (shown as**) of 20%<Y≤35%)”.

Regarding `Cn1nccc1[C@@H](NC(=O)c1ccc2c(c1)CN(C1CCC(=O)NC1=O)C2=O)C(F)(F)F` (stereo partly drawn) [Example 69, 2-(2,6-dioxopiperidin-3-yl)-1-oxo-N-((R)-2,2,2-trifluoro-1-(1-methyl-1H-pyrazol-5-yl)ethyl)isoindoline-5-carboxamide], the DC50 was 500 to 1000 nM and the Y entry is listed as “** (a Y value (shown as**) of 20%<Y≤35%)”.

For `Cn1cc([C@@H](NC(=O)c2ccc3c(c2)CN(C2CCC(=O)NC2=O)C3=O)C(F)(F)F)cn1` (stereo partly drawn) [Example 70, 2-(2,6-dioxopiperidin-3-yl)-1-oxo-N-((R)-2,2,2-trifluoro-1-(1-methyl-1H-pyrazol-4-yl)ethyl)isoindoline-5-carboxamide], the DC50 was 100 to 500 nM and the Y entry is listed as “** (a Y value (shown as**) of 20%<Y≤35%)”.

As for `O=C1CCC(N2Cc3cc(C(=O)N[C@H](C4CCC(C(F)(F)F)CC4)C(F)(F)F)ccc3C2=O)C(=O)N1` (stereo partly drawn) [Example 71, 2-(2,6-dioxopiperidin-3-yl)-1-oxo-N-((1R)-2,2,2-trifluoro-1-(4-(trifluoromethyl)cyclohexyl)ethyl)isoindoline-5-carboxamide], the half-maximal degradation concentration (DC50) was under 100 nM and the Y result is given as “* (a Y value (shown as *) of 0<Y≤20%)”.

On to `O=C1CCC(N2Cc3cc(C(=O)N[C@H](c4ccc(F)cc4Cl)C(F)(F)F)ccc3C2=O)C(=O)N1` (stereo partly drawn) [Example 72, N-((R)-1-(2-chloro-4-fluorophenyl)-2,2,2-trifluoroethyl)-2-(2,6-dioxopiperidin-3-yl)-1-oxoisoindoline-5-carboxamide], for which the DC50 is under 100 nM and the Y entry is reported as “* (a Y value (shown as *) of 0<Y≤20%)”.

As to `O=C1CCC(N2Cc3cc(C(=O)N[C@H](c4ccc(F)c(F)c4)C(F)(F)F)ccc3C2=O)C(=O)N1` (stereo partly drawn) [Example 73, N-((R)-1-(3,4-difluorophenyl)-2,2,2-trifluoroethyl)-2-(2,6-dioxopiperidin-3-yl)-1-oxoisoindoline-5-carboxamide], the 50% degradation concentration (DC50) was under 100 nM and the Y entry was “* (a Y value (shown as *) of 0<Y≤20%)”.

As to `CC1([C@@H](NC(=O)c2ccc3c(c2)CN(C2CCC(=O)NC2=O)C3=O)C(F)(F)F)CCC1` (stereo partly drawn) [Example 74, 2-(2,6-dioxopiperidin-3-yl)-1-oxo-N-((R)-2,2,2-trifluoro-1-(1-methylcyclobutyl)ethyl)isoindoline-5-carboxamide], the DC50 was under 100 nM and the Y result was “* (a Y value (shown as *) of 0<Y≤20%)”.

On to `O=C1CCC(N2Cc3cc(C(=O)N[C@@H](C(F)(F)F)C4(C(F)(F)F)CC4)ccc3C2=O)C(=O)N1` (stereo partly drawn) [Example 75, 2-(2,6-dioxopiperidin-3-yl)-1-oxo-N-((R)-2,2,2-trifluoro-1-(1-(trifluoromethyl)cyclopropyl)ethyl)isoindoline-5-carboxamide], for which the half-maximal degradation concentration (DC50) fell in the range of 100 to 500 nM and the Y entry was “** (a Y value (shown as**) of 20%<Y≤35%)”.

With `O=C1CCC(N2Cc3cc(C(=O)N[C@H](c4ccc(F)cn4)C(F)(F)F)ccc3C2=O)C(=O)N1` (stereo partly drawn) [Example 76, 2-(2,6-dioxopiperidin-3-yl)-1-oxo-N-((R)-2,2,2-trifluoro-1-(5-fluoropyridin-2-yl)ethyl)isoindoline-5-carboxamide], the 50% degradation concentration (DC50) is under 100 nM and the Y entry is on record as “** (a Y value (shown as**) of 20%<Y≤35%)”.

`O=C1CCC(N2Cc3cc(C(=O)N[C@H](c4ccc(F)cc4C(F)(F)F)C(F)(F)F)ccc3C2=O)C(=O)N1` (stereo partly drawn) [Example 77, 2-(2,6-dioxopiperidin-3-yl)-1-oxo-N-((R)-2,2,2-trifluoro-1-(4-fluoro-2-(trifluoromethyl)phenyl)ethyl)isoindoline-5-carboxamide]: the 50% degradation concentration (DC50) is under 100 nM and the Y result is “* (a Y value (shown as *) of 0<Y≤20%)”.

As for `CC1([C@@H](NC(=O)c2ccc3c(c2)CN(C2CCC(=O)NC2=O)C3=O)C(F)(F)F)CC1` (stereo partly drawn) [Example 78, 2-(2,6-dioxopiperidin-3-yl)-1-oxo-N-((R)-2,2,2-trifluoro-1-(1-methylcyclopropyl)ethyl)isoindoline-5-carboxamide], the DC50 was under 100 nM and the Y result is “* (a Y value (shown as *) of 0<Y≤20%)”.

For the compound `O=C1CCC(N2Cc3cc(C(=O)N[C@H](c4ccc(Cl)cc4F)C(F)(F)F)ccc3C2=O)C(=O)N1` (stereo partly drawn) [Example 79, N-((R)-1-(4-chloro-2-fluorophenyl)-2,2,2-trifluoroethyl)-2-(2,6-dioxopiperidin-3-yl)-1-oxoisoindoline-5-carboxamide], the DC50 is under 100 nM and the Y result is “* (a Y value (shown as *) of 0<Y≤20%)”.

By DC50 is commonly meant the concentration at which degradation of the target reaches its halfway point. Higher therefore signals degradation only at high concentration.
